From patent US20110244060A1, “CARDIOPROTECTIVE EFFECTS OF NUTRACEUTICALS ISOLATED FROM NIGELLA SATIVA SEEDS” (UNIVERSITI PUTRA MALAYSIA, priority 2008, published 2011) come the findings set out here.

Series [1] has as its system LDLR mRNA. The experiment in a line: LDLR mRNA expression in HepG2 cells, quantitative real-time PCR. The format is cell-based, human. The conditions noted are these: TQ 2 μg/ml, compared to control cells. (Quantitative PCR measures a nucleic acid by following its amplification.)
For series [2], the system named is Apo E mRNA. The experiment in a line: Apo E mRNA expression in HepG2 cells, real-time PCR. Conditions: HepG2 cells (in vitro), compared to the control. The format is cell-based, human. Here is the method:
(§1) For the determination of mRNA expression levels of LDLR, HMG-COAR, beta actin, Apo A-1, Apo E and Apo B100 by real time PCR, HepG2 cells were plated in 6-well plates at a density of 1.8×10^5 cells/well for 24 h. The cells were incubated with 10% HLPDS for 24 h with or without adding 2 μg/ml 25OH for another 24 h. The cells were treated with TQRF at two different doses, 80 and 50 μg/ml for 24 h, and with TQ at dose of 2 μg/ml Total RNA was isolated from HepG2 cells and rats liver tissues using RiboPure RNA Isolation Kit according to the manufacturer's instructions. […] Real-time quantitative PCR was performed using the Quantict Probe Real time PCR master mix according to the manufacturer's instructions. TaqMan Primers and probes specific for LDLR and HMG-COA genes were designed using the sequence entries from GenBank (Table. 1) Database and synthesis by Integrated DNA Technologies (IDT). Human beta-actin mRNA was used as housekeeping gene, TaqMan Primers and probes specific for human beta-actin gene was synthesis by Sigma Aldrich. The probes were labeled with FAM 3′ end and the fluorophores 6FAM at 5′ end. The real-time quantitative PCR reaction for each sample was carried out in triplicate and each experiment was repeated twice. […] Analysis of gene expression data was carried out by ΔΔCT method of relative quantification, according to Kenneth, et al, (2001) (32). […]

In series [3] the test system is LDLR mRNA. The series is described as follows: LDLR mRNA expression in liver of experimental rats, quantitative real-time PCR. The format is in vivo. Conditions: rat liver, compared with untreated rats.
For series [4], the system named is Sprague-Dawley rats fed with diets supplemented with 1% cholesterol. The experiment in a line: Hypocholesterolemic effect of TQRF and TQ in rats fed 1% cholesterol diet (plasma TC, LDLC). The format is in vivo, rat. Conditions: for TC levels in experimental rats: 1% cholesterol diet.
Series [5] has as its system Apo B100 mRNA. The series is described as follows: Apo B100 mRNA expression in HepG2 cells, real-time PCR. The format is cell-based, human. Conditions: HepG2 cells (in vitro), compared to the control. As to the method: as §1
In series [6] the test system is HMG-COAR mRNA. The experiment in a line: HMG-COAR mRNA expression in rat liver, real-time PCR. The conditions noted are these: rat liver (in vivo), compared to the control. Here is the method:
At the end of the experiment, all the rats were dissected and liver tissues for RNA isolation were removed, snap frozen with liquid nitrogen within approximately 2 min of death, and stored at −80° C. for gene expression study. Total RNA was isolated from HepG2 cells and rats liver tissues using RiboPure RNA Isolation Kit according to the manufacturer's instructions. […] Real-time quantitative PCR was performed using the Quantict Probe Real time PCR master mix according to the manufacturer's instructions. TaqMan Primers and probes specific for LDLR and HMG-COA genes were designed using the sequence entries from GenBank (Table. 1) Database and synthesis by Integrated DNA Technologies (IDT). Human beta-actin mRNA was used as housekeeping gene, TaqMan Primers and probes specific for human beta-actin gene was synthesis by Sigma Aldrich. The probes were labeled with FAM 3′ end and the fluorophores 6FAM at 5′ end. The real-time quantitative PCR reaction for each sample was carried out in triplicate and each experiment was repeated twice. […] Analysis of gene expression data was carried out by ΔΔCT method of relative quantification, according to Kenneth, et al, (2001) (32). […]

The test system of series [7] is hydroxyl radical. The series is described as follows: Hydroxyl radical scavenging activity of rat plasma by ESR. The format is in vivo. Conditions: plasma of rats after 8 weeks of treatment, different doses.
Series [8] relates to Apo A-1 mRNA. The experiment in a line: Apo A-1 mRNA expression in HepG2 cells, real-time PCR. The format is cell-based, human. Conditions: HepG2 cells (in vitro), compared to the control. Here is the method:
as §1

In series [9] the test system is Apo E mRNA. The series is described as follows: Apo E mRNA expression in rat liver, real-time PCR. The conditions noted are these: rat liver (in vivo), compared to the control.
The test system of series [10] is HMG-COAR mRNA. The experiment in a line: HMG-COAR mRNA expression in HepG2 cells, real-time PCR. The format is cell-based, human. The conditions noted are these: HepG2 cells (in vitro), compared to the control. As to the method: as §1
Series [11] deals with Apo A-1 mRNA. The series is described as follows: Apo A-1 mRNA expression in rat liver, real-time PCR. Conditions: rat liver (in vivo), compared to the control.
A short description of series [12]: Toxicity parameters (ALT, GGT, urea, creatinine) of plasma from experimental rats. Conditions: rat, in vivo. Here is the method: In the present invention, the in vivo (rabbit study) antioxidant activity of NSP and NSO were measured using Selectra E manufacture Vital scientific machine (UK) and with commercial kits (Randox, Crumlin, Co. Antrim, UK). The present invention provides a method of the antioxidant activity of TQRF and TQ on .OH scavenging activity using ESR in experimental rats. The present invention provided clear understanding of the molecular mechanism by which TQRF and TQ exert their lowering cholesterol property. The regulatory effect of TQRF and TQ on genes involved in cholesterol metabolism such as LDLR, HMG-COAR, Apo A-1, Apo B100 and Apo E were investigated in vitro using HepG2 cells and in vivo using Sprague-Dawley rats. The present invention also provides evidence on the safety of selective doses of TQRF, TQ, NSO and NSP by measuring the toxicity parameters including Alanine aminotransferase (ALT), Gamma-glutamyltranspeptidase (GGT), urea and creatinine of plasma collected from experimental rats and rabbits.
Toxicity parameter including, ALT of plasma samples collected from experimental rats at baseline, middle of the treatment and the end f the treatment s were measured using analytical kit by kinetic UV assay using Roche Selectra E machine.

Series [13] deals with Apo B100 mRNA. The experiment in a line: Apo B100 mRNA expression in rat liver, real-time PCR. Conditions: rat liver (in vivo), compared to the control.

Marks after values point to notes of the source that are not given here.

For the compound `CC1=CC(=O)C(C(C)C)=CC1=O` [TQ, Thymoquinone], the “increase of LDLR mRNA expression level” value in series [1] was “two”. For the same compound, the “Apo E mRNA expression” value in [2] and in series [9] was “up-regulated” throughout. Further, the “increase of LDLR mRNA level” value in series [3] (TQ 20 mg/kg body weight) is reported as “two”; in series [3] (TQ 100 mg/kg body weight), “seven”. In addition, the “TC levels in experimental rats” value was 1.49 ± 0.24 ^b mmol/l in [4] (TQ 1 group (20 mg/kg oral emulsion), after 4 weeks); 1.48 ± 0.22 ^a, c mmol/l in series [4] (TQ 1 group (20 mg/kg oral emulsion), after 8 weeks); 0.85 ± 0.19 mmol/L in series [4] (TQ 1 group (20 mg/kg oral emulsion), baseline); 1.47 ± 0.31 ^b mmol/l in series [4] (TQ 2 group (50 mg/kg oral emulsion), after 4 weeks); 1.01 ± 0.34 ^a mmol/l in [4] (TQ 2 group (50 mg/kg oral emulsion), after 8 weeks); 0.97 ± 0.05 mmol/L in [4] (TQ 2 group (50 mg/kg oral emulsion), baseline). Moreover, the “TC levels in experimental rats” value is 1.41 ± 0.48 ^b mmol/l in series [4] (TQ 3 group (dose 20 mg/kg, oral emulsion), after 4 weeks); 0.94 ± 0.30 ^a mmol/l in [4] (TQ 3 group (dose 20 mg/kg, oral emulsion), after 8 weeks); 0.87 ± 0.26 mmol/L in series [4] (TQ 3 group (dose 20 mg/kg, oral emulsion), baseline). In addition, the “plasma low density lipoprotein cholesterol (LDLC)” value in [4] (rats, different doses for 8 weeks, compared to controlled group) is “significant decrease”. Also, the “Apo B100 mRNA expression” value in [5] and in [13] was “down-regulated” throughout. In addition, the “HMG-COAR mRNA expression” value in [6] and in series [10] was “down-regulated” in each case. In series [7], the “hydroxyl radical scavenging activity of plasma (ESR)” value is listed as “able to directly scavenge .OH”. The “Apo A-I mRNA expression” value in [8] and in [11] was “up-regulated” throughout. Also, the “toxicity (hepatic and kidney enzyme stability, organ integrity)” value in series [12] is “non toxic”.
